Source: patent US4742064A, “Antiviral carbocyclic analogs of xylofuranosylpurines” (Regents of the University of Minnesota, priority 1985, dated 1988)
“Also recorded” adds a separate entry of the source.

Columns and labels:
[1] = system: P-388 mouse leukemia cells; experiment: P-388 mouse leukemia cell culture cytotoxicity assay; type: cell-based; conditions: for IC50: Mus musculus, P388, P-388 leukemia cells in culture, read-out: ED50 (inhibitory concentration, cytotoxicity); for cytotoxicity (in words) / cytotoxicity relative to the corresponding non-aza analogs 9a and 10a (in words): P-388 mouse leukemia cell culture
Description: *Assay Technique: R. G. Almquist and R. Vince, J. Med. Chem., 16, 1396

HSV-2 (MS) = experiment: cytopathogenic effects (CPE)-inhibition procedure, HSV-2, Vero cells; conditions: for VR (virus rating), HSV-2 (MS): HSV-2 strain MS, Vero cell monolayers, VR ≥ 1.0 = definite activity, 0.5-0.9 marginal to moderate, < 0.5 usually no significant activity; for antiviral activity against HSV-2 (in words): Table II data
Description: (§1) The analogs were evalulated by a cytopathogenic effects (CPE)-inhibition procedure. The host cell culture systems employed were pre-grown Vero cell monolayers.
(§2) *VR = virus rating: A measurement of selective antiviral activity which
(§3) takes into account the degree of inhibition of virusinduced cytopathogeni
(§4) effects (CPE) and the degree of cytotoxicity produced by the test
(§5) compound, determined by a modification of the method of Ehrlich et al.
(§6) definite (+) antiviral activity, a VR of 0.5-0.9 indicates marginal to
(§7) moderate (+) antiviral activity, and a VR < 0.5 usually indicates no (-)
significant antiviral activity.

HSV-1 (E-377) = experiment: cytopathogenic effects (CPE)-inhibition procedure, HSV-1, Vero cells; conditions: for VR (virus rating), HSV-1 (E-377): HSV-1 strain E-377, Vero cell monolayers, VR ≥ 1.0 = definite activity, 0.5-0.9 marginal to moderate, < 0.5 usually no significant activity; for antiviral activity against HSV-1 (in words): Table II data
Description: as §1, §2, §3, §4, §5, §6, §7
significant antiviral activity.

HSV-2 = conditions: prior literature; cited from earlier work
HSV-1 = conditions: prior literature; cited from earlier work
influenza virus = experiment: activity against an influenza virus; type: cell-based

Row | SMILES | IC50 [1] [µM] | VR (virus rating), HSV-2 (MS) (HSV-2 (MS)) | VR (virus rating), HSV-1 (E-377) (HSV-1 (E-377)) | antiviral activity against HSV-1 (in words) (HSV-1 (E-377)) | cytotoxicity (in words) [1] | further results
1 | Nc1nc(Cl)c2ncn([C@@H]3C[C@H](CO)[C@H](O)[C@H]3O)c2n1 (relative stereo) [Compound 8, (d1)-(1 α, 2 β, 3 α, 5 α)-3-(2-Amino-6-chloro-9H-purin-9-yl)-5-(hydroxymethyl)-1,2-cyclopentanediol] | 220 |  |  |  |  | 
2 | Nc1ncnc2c1ncn2[C@@H]1O[C@H](CO)[C@@H](O)[C@@H]1O.O [Ara-A, 9-β-D-arabinofuranosyladenine monohydrate, reference compound] |  | 1.6 | 1.7 |  |  | 
3 | Nc1nc2c(ncn2[C@@H]2C[C@H](CO)[C@H](O)[C@H]2O)c(=O)[nH]1 (relative stereo) [Compound 9a, (d1)-2-Amino-1,9-dihydro-9-[(1 α,2 β,3 α,4 α)-2,3-dihydroxy-4-(hydroxymethyl)cyclopentyl]-6H-purin-6-one] | 8.9 | 3.9 | 5.6 | substantial antiviral activity | significant cytotoxicities | antiviral activity against HSV-2 (in words) (HSV-2 (MS)): active; profile of activity in the antiviral assay (in words) (HSV-1 (E-377); comparison among analogs of Table II): best profile of activity
4 | Nc1nc(N)c2ncn([C@@H]3C[C@H](CO)[C@@H](O)[C@@H]3O)c2n1 (relative stereo) |  |  |  |  |  | activity against HSV-2 (in words) (HSV-2): inactive; activity against HSV-1 (in words) (HSV-1): exhibited activity
5 | Nc1nc(N)c2ncn([C@@H]3C[C@H](CO)[C@H](O)[C@H]3O)c2n1 (relative stereo) [Compound 10a] | 39 |  | 2.7 | substantial antiviral activity |  | 
6 | COc1nc(N)nc2c1nnn2[C@@H]1C[C@H](CO)[C@H](O)[C@H]1O (relative stereo) [Compound 12, (d1)-(1 α,2 β,3 α,5 α)-3-(5-Amino-7-methoxy-3H-1,2,3-triazalo [4,5-d]pyrimidin-3-yl)-5-(hydroxymethyl)-1,2-cyclopentanediol] | 63 |  |  |  |  | 
7 | Nc1nc2c(nnn2[C@@H]2C[C@H](CO)[C@H](O)[C@H]2O)c(=O)[nH]1 (relative stereo) [Compound 13a, (d1)-5-Amino-3,6-dihydro-3-[(1 α,2 β,3 α,5 α)-2,3-dihydroxy-4-(hydroxymethyl)cyclopentyl]-7H-1,2,3-triazalo[4,5-d]pyrimidin-7-one] | 1.6 | 1.3 | 2.4 | substantial antiviral activity | inhibition at the lowest concentration; also recorded: significant cytotoxicities | antiviral activity against HSV-2 (in words) (HSV-2 (MS)): active; cytotoxicity relative to the corresponding non-aza analogs 9a and 10a (in words) [1]: more active; activity against an influenza virus (in words) (influenza virus): significant activity
8 | Nc1nc(N)c2nnn([C@@H]3C[C@H](CO)[C@H](O)[C@H]3O)c2n1 (relative stereo) [Compound 14a, (d1)-(1 α,2 β,3 α,5 α)-3-(5,7-Diamino-3H-1,2,3-triazalo[4,5-d]pyrimidin-3-yl)-5-(hydroxymethyl)-1,2-cyclopentanediol] | 5.3 |  | 2.0 | substantial antiviral activity | significant cytotoxicities | cytotoxicity relative to the corresponding non-aza analogs 9a and 10a (in words) [1]: more active
9 | Nc1nc(Cl)c2nnn([C@@H]3C[C@H](CO)[C@H](O)[C@H]3O)c2n1 (relative stereo) [Compound 11, (d1)-(1 α,2 β,3 α,5 α)-3-(5-Amino-7-Chloro-3H-1,2,3-triazalo [4,5-d]pyrimidin-3-yl)-5-(hydroxymethyl)-1,2-cyclopentanediol] | 50 |  |  |  |  | 
